IC50 data for 15 compounds are collected here from patent US12172983B2, “EGFR inhibitors” (Blueprint Medicines Corporation, priority 2019, dated 2024).

In one assay the target is T1, EGFR (L858R T790M C797S) (Homo sapiens, UniProt P00533, C797S/L858R/T790M).
T1 construct: purchased SignalChem E10-122VG
In words: Biochemical EGFR inhibition assay (Caliper mobility shift), EGFR LRTMCS mutant. Particulars: inhibitory activity against EGFR LRTMCS mutant; apparent IC50; read-out: Ext Enz LRTMCS. The method, boiled down: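 Kinase reactions proceed at 25° C. to 10%–20% conversion of total peptide, are terminated with 35 mM EDTA, and the phosphopeptide is resolved from substrate by electrophoretic mobility shift. Apparent IC50 values come from plotting percent activity against log compound concentration.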

Assay [1] has as its system phosphorylation of EGFR (Tyr1068) in NCI-H1975 cell line that harbors the EGFR L858R T790M mutations. The experiment in a line: NCI-H1975 pEGFR AlphaLISA assay. The assay is classed as cell-based. Particulars: 4-5 hours incubation, read-out: Ext pEGFR H1975. The essentials: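 Phospho-EGFR Tyr1068 AlphaLISA readout: lysates taken from compound-treated H1975 cells (L858R T790M EGFR) after a 4-5 h exposure at 37 °C. Cells had adhered overnight beforehand. IC50 derived by plotting % pEGFR inhibition against log compound concentration.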
(In general: Alpha assays give light when donor and acceptor beads are brought close together.)

Setting [2] is: inhibition of phosphorylation of mutant EGFR in NCI-H1975 cells.
[3] abbreviates: Homo sapiens, NCI-H1975, inhibition of phosphorylation of mutant EGFR in NCI-H1975 cells.

pIC50: −log10 of the molar value. Where two headings read alike, the source gives them in different places.

T1 sequence (P00533 25-1210 T790M/C797S/L858R): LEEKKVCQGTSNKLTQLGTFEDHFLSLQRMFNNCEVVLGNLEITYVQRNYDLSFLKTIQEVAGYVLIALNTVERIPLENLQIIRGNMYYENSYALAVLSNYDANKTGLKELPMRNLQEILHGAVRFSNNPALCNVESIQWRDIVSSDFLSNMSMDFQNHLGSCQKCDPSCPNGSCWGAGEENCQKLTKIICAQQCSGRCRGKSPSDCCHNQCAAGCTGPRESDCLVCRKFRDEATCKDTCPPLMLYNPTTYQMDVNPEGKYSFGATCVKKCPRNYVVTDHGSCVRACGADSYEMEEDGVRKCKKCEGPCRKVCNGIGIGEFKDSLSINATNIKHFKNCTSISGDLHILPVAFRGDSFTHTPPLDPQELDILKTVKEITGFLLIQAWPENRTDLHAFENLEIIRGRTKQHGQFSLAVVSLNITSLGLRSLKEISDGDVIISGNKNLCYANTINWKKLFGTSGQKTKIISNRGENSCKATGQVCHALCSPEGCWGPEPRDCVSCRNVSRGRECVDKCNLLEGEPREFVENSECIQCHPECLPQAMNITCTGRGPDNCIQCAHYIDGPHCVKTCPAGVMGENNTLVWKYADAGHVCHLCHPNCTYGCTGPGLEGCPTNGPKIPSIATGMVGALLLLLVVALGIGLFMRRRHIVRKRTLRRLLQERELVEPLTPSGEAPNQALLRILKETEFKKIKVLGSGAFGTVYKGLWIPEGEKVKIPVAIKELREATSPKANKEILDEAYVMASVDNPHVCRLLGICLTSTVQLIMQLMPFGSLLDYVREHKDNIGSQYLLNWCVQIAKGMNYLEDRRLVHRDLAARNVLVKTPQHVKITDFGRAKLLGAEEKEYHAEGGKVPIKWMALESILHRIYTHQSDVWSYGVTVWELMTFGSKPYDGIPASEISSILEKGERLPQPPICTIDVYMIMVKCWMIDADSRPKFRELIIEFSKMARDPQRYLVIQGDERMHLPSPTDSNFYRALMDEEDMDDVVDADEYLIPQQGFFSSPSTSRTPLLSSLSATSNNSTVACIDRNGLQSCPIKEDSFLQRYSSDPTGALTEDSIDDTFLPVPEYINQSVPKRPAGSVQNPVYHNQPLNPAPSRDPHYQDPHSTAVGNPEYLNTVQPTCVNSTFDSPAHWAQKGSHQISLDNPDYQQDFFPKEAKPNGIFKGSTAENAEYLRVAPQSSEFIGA

With `CC(C)c1cnc(N2CC(CS(C)(=O)=O)C2)c2cnc(Nc3ccnc(N4C[C@H](F)[C@@H](F)C4)n3)cc12` (single isomer, unassigned) [Compound 8, N-{2-[(3S,4S)-3,4-difluoropyrrolidin-1-yl]pyrimidin-4-yl}-8-[3-(methanesulfonylmethyl)azetidin-1-yl]-5-(propan-2-yl)-2,7-naphthyridin-3-amine or N-{2-[(3R,4R)-3,4-difluoropyrrolidin-1-yl]pyrimidin-4-yl}-8-[3-(methanesulfonylmethyl)azetidin-1-yl]-5-(propan-2-yl)-2,7-naphthyridin-3-amine], the pIC50 on EGFR (L858R T790M C797S) was at least 7.82; in assay [1] (setting [2]), 7.30 to 7.52.
`CCS(=O)(=O)C[C@H]1CN(c2ccc(C(C)C)c3cc(Nc4ccnc(N5CC[C@@H](OCCO)C(F)(F)C5)n4)ncc23)[C@@H]1C` (single isomer, unassigned) [Compound 303, 2-{[(4S)-1-[4-({8-[(2R,3S)-3-[(ethanesulfonyl)methyl]-2-methylazetidin-1-yl]-5-(propan-2-yl)isoquinolin-3-yl}amino)pyrimidin-2-yl]-3,3-difluoropiperidin-4-yl]oxy}ethan-1-ol or 2-{[(4R)-1-[4-({8-[(2R,3S)-3-[(ethanesulfonyl)methyl]-2-methylazetidin-1-yl]-5-(propan-2-yl)isoquinolin-3-yl}amino)pyrimidin-2-yl]-3,3-difluoropiperidin-4-yl]oxy}ethan-1-ol]: the results for the pIC50 (at EGFR (L858R T790M C797S); in assay [1] (setting [2])) were 7.70 to 7.82 and at least 8.00, respectively.
For the compound `[2H]C([2H])([2H])OC1CCN(c2nccc(Nc3cc4c(C(C)C)ccc(N5C[C@H](CS(C)(=O)=O)[C@H]5C)c4cn3)n2)CC1` [Compound 263, 8-[(2R,3S)-3-(methanesulfonylmethyl)-2-methylazetidin-1-yl]-N-{2-[4-(^2H3)methoxypiperidin-1-yl]pyrimidin-4-yl}-5-(propan-2-yl)isoquinolin-3-amine], the pIC50 at EGFR (L858R T790M C797S) is 7.70 to 7.82; in assay [1] (setting [3]) it was 7.70 to 8.00.
With `CC(C)c1ccc(N2C[C@H](CS(C)(=O)=O)[C@H]2C)c2cnc(Nc3ccnc(N4CC[C@H]5COC[C@H]54)n3)cc12` (single isomer, unassigned) [Compound 40], the pIC50 is at least 7.82 at EGFR (L858R T790M C797S) and at least 8.00 in assay [1] (setting [3]).
As to `CCS(=O)(=O)CC1CN(c2ccc(C)c3cc(Nc4ccnc(N5C[C@@H](F)[C@@H](O)C(C)(C)C5)n4)ncc23)C1` (single isomer, unassigned) [Compound 60, (4S,5R)-1-{4-[(8-{3-[(ethanesulfonyl)methyl]azetidin-1-yl}-5-methylisoquinolin-3-yl)amino]pyrimidin-2-yl}-5-fluoro-3,3-dimethylpiperidin-4-ol or (4R,5S)-1-{4-[(8-{3-[(ethanesulfonyl)methyl]azetidin-1-yl}-5-methylisoquinolin-3-yl)amino]pyrimidin-2-yl}-5-fluoro-3,3-dimethylpiperidin-4-ol], the values for the pIC50 (on EGFR (L858R T790M C797S); in assay [1] (setting [3])) were at least 7.82 and 7.52 to 7.70, respectively.
Regarding `CC(C)c1ccc(N2CC(CS(C)(=O)=O)C2)c2cnc(Nc3ccnc(N4CC[C@@H](F)[C@@H](O)C4)n3)cc12` (single isomer, unassigned) [Compound 26, (3R,4S)-4-fluoro-1-[4-({8-[3-(methanesulfonylmethyl)azetidin-1-yl]-5-(propan-2-yl)isoquinolin-3-yl}amino)pyrimidin-2-yl]piperidin-3-ol or (3S,4R)-4-fluoro-1-[4-({8-[3-(methanesulfonylmethyl)azetidin-1-yl]-5-(propan-2-yl)isoquinolin-3-yl}amino)pyrimidin-2-yl]piperidin-3-ol], the pIC50 is at least 7.82 on EGFR (L858R T790M C797S) and at least 8.00 in assay [1] (setting [3]).
For the compound `CC(C)c1cnc(N2CC(CS(=O)(=O)C(C)C)C2)c2cnc(Nc3ccnc(N4CC[C@@H](O)[C@@](C)(F)C4)n3)cc12` (single isomer, unassigned) [Compound 188], the pIC50 was at least 7.82 at EGFR (L858R T790M C797S) and at least 8.00 in assay [1] (setting [3]).
On to `CO[C@@H]1[C@H](O)CN(c2nccc(Nc3cc4c(C(C)C)cnc(N5C[C@H](CS(C)(=O)=O)[C@H]5C)c4cn3)n2)CC1(F)F` (single isomer, unassigned) [Compound 236, (3S,4S)-5,5-difluoro-1-[4-({8-[(2R,3S)-3-(methanesulfonylmethyl)-2-methylazetidin-1-yl]-5-(propan-2-yl)-2,7-naphthyridin-3-yl}amino)pyrimidin-2-yl]-4-methoxypiperidin-3-ol or (3R,4R)-5,5-difluoro-1-[4-({8-[(2R,3S)-3-(methanesulfonylmethyl)-2-methylazetidin-1-yl]-5-(propan-2-yl)-2,7-naphthyridin-3-yl}amino)pyrimidin-2-yl]-4-methoxypiperidin-3-ol], for which the pIC50 on EGFR (L858R T790M C797S) is at least 7.82; in assay [1] (setting [2]) it was 7.70 to 8.00.
Turning to `CC(C)c1cnc(N2C[C@H](CS(C)(=O)=O)[C@H]2C)c2cnc(Nc3ccnc(N4CC[C@@](C)(O)C(F)(F)C4)n3)cc12` (single isomer, unassigned) [Compound 215, (4R)-3,3-difluoro-1-[4-({8-[(2R,3S)-3-(methanesulfonylmethyl)-2-methylazetidin-1-yl]-5-(propan-2-yl)-2,7-naphthyridin-3-yl}amino)pyrimidin-2-yl]-4-methylpiperidin-4-ol or (4S)-3,3-difluoro-1-[4-({8-[(2R,3S)-3-(methanesulfonylmethyl)-2-methylazetidin-1-yl]-5-(propan-2-yl)-2,7-naphthyridin-3-yl}amino)pyrimidin-2-yl]-4-methylpiperidin-4-ol], the pIC50 on EGFR (L858R T790M C797S) was at least 7.82; in assay [1] (setting [3]), at least 8.00.
As to `CO[C@@H]1[C@H](O)CN(c2nccc(Nc3cc4c(C(C)C)ncc(N5C[C@H](CS(C)(=O)=O)[C@H]5C)c4cn3)n2)CC1(F)F` (single isomer, unassigned) [Compound 233, (3R,4R)-5,5-difluoro-1-[4-({8-[(2R,3S)-3-(methanesulfonylmethyl)-2-methylazetidin-1-yl]-5-(propan-2-yl)-2,6-naphthyridin-3-yl}amino)pyrimidin-2-yl]-4-methoxypiperidin-3-ol or (3S,4S)-5,5-difluoro-1-[4-({8-[(2R,3S)-3-(methanesulfonylmethyl)-2-methylazetidin-1-yl]-5-(propan-2-yl)-2,6-naphthyridin-3-yl}amino)pyrimidin-2-yl]-4-methoxypiperidin-3-ol], the pIC50 on EGFR (L858R T790M C797S) was at least 7.82; in assay [1] (setting [3]), at least 8.00.
On to `CO[C@H]1CN(c2nccc(Nc3cc4c(C(C)C)ccc(N5C[C@H](CS(C)(=O)=O)[C@H]5C)c4cn3)n2)CC[C@H]1O` (single isomer, unassigned) [Compound 97, (3S,4R)-1-[4-({8-[(2R,3S)-3-(methanesulfonylmethyl)-2-methylazetidin-1-yl]-5-(propan-2-yl)isoquinolin-3-yl}amino)pyrimidin-2-yl]-3-methoxypiperidin-4-ol or (3R,4S)-1-[4-({8-[(2R,3S)-3-(methanesulfonylmethyl)-2-methylazetidin-1-yl]-5-(propan-2-yl)isoquinolin-3-yl}amino)pyrimidin-2-yl]-3-methoxypiperidin-4-ol], for which the pIC50 is at least 7.82 on EGFR (L858R T790M C797S) and at least 8.00 in assay [1] (setting [3]).
With `CC(C)c1ccc(N2C[C@H](CS(C)(=O)=O)[C@H]2C)c2cnc(Nc3ccnc(N4CC[C@@H](OCCO)C(F)(F)C4)n3)cc12` (single isomer, unassigned) [Compound 251], the pIC50 was 7.70 to 7.82 on EGFR (L858R T790M C797S) and at least 8.00 in assay [1] (setting [3]).
Take `CN(C)CCS(=O)(=O)CC1CN(c2cccc3cc(Nc4ccnc(N5C[C@@H](F)[C@@H](O)C(C)(C)C5)n4)ncc23)C1` (single isomer, unassigned) [Compound 192, (4S,5R)-1-(4-{[8-(3-{[2-(dimethylamino)ethanesulfonyl]methyl}azetidin-1-yl)isoquinolin-3-yl]amino}pyrimidin-2-yl)-5-fluoro-3,3-dimethylpiperidin-4-ol or (4R,5S)-1-(4-{[8-(3-{[2-(dimethylamino)ethanesulfonyl]methyl}azetidin-1-yl)isoquinolin-3-yl]amino}pyrimidin-2-yl)-5-fluoro-3,3-dimethylpiperidin-4-ol]: the pIC50 is at least 7.82 at EGFR (L858R T790M C797S) and 7.70 to 8.00 in assay [1] (setting [3]).
On to `[2H]C([2H])([2H])O[C@@H]1CCN(c2nccc(Nc3cc4c(C(C)C)cnc(N5CC(CS(C)(=O)=O)C5)c4cn3)n2)C[C@@H]1F` [Compound 264, N-{2-[(3S,4R)-3-fluoro-4-(^2H3)methoxypiperidin-1-yl]pyrimidin-4-yl}-8-[3-(methanesulfonylmethyl)azetidin-1-yl]-5-(propan-2-yl)-2,7-naphthyridin-3-amine], for which the pIC50 on EGFR (L858R T790M C797S) was at least 7.82; in assay [1] (setting [3]), at least 8.00.
Consider `CN[C@H]1CCN(c2nccc(Nc3cc4c(C(C)C)ccc(N5C[C@H](CS(C)(=O)=O)[C@H]5C)c4cn3)n2)C[C@H]1F` (single isomer, unassigned) [Compound 307, N-{2-[(3S,4R)-3-fluoro-4-(methylamino)piperidin-1-yl]pyrimidin-4-yl}-8-[(2R,3S)-3-(methanesulfonylmethyl)-2-methylazetidin-1-yl]-5-(propan-2-yl)isoquinolin-3-amine or N-{2-[(3R,4S)-3-fluoro-4-(methylamino)piperidin-1-yl]pyrimidin-4-yl}-8-[(2R,3S)-3-(methanesulfonylmethyl)-2-methylazetidin-1-yl]-5-(propan-2-yl)isoquinolin-3-amine], for which the pIC50 was 7.52 to 7.70 at EGFR (L858R T790M C797S) and 7.70 to 8.00 in assay [1] (setting [2]).
